Like-named read-outs stand apart in the source and are kept apart here. Some results are limits rather than exact numbers.

The test system of one assay is HCT116 MTAP+/+. The assay can be described thus: Inhibition of cellular proliferation (Cell Titer Glo), HCT116 MTAP+/+. The assay is classed as cell-based. The conditions noted are these: Homo sapiens, HCT-116, 96 h, Table 5a, 4 days, read-out: 4 Day Relative Growth Inhibition (MTAP +/+). In outline: (§1)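 Isogenic HCT116 MTAP+/+ and MTAP−/− cells were plated, treated with MAT2A inhibitor after 24 h, and incubated 4 days at 37 °C. Proliferation was read by CellTiter-Glo ATP luminescence, blank-subtracted and normalized to 0.2% DMSO control.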
On the technique in general: In ATP-based viability assays light output follows the ATP content of the culture.

In a further assay the test system is HCT116 MTAP-/-. The assay can be described thus: Inhibition of cellular proliferation (Cell Titer Glo), HCT116 MTAP-/-. The assay is classed as cell-based, human. As to conditions: 4 days, read-out: 4 Day Relative Growth Inhibition (MTAP −/−). In outline:
as §1

Assay [1] has as its system SAM in HCT116 MTAP-deleted cells. The assay can be described thus: Cellular assay of target engagement (SAM), LC-MS/MS. As to conditions: 72 h, read-out: Cell 72 h SAM Inhibition (MTAP −/−). In kind it is cell-based, human. In outline: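 HCT116 cells with MTAP deleted were treated with compound for 72 h at 37°C/5% CO2. After quenching lysis in cold 80% methanol with 1 M acetic acid, SAM was quantified by LC-MS/MS against a d3-SAM internal standard.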

In another assay the target is T1, MAT2A homodimer (Homo sapiens, UniProt P31153).
T1 construct: inferred from the Ni sepharose purification and imidazole elution; made in house; host or cells: SF9 insect cells, recombinant baculovirus (Bac to Bac, pFASTBAC1)
T1 sequence (P31153 whole entry): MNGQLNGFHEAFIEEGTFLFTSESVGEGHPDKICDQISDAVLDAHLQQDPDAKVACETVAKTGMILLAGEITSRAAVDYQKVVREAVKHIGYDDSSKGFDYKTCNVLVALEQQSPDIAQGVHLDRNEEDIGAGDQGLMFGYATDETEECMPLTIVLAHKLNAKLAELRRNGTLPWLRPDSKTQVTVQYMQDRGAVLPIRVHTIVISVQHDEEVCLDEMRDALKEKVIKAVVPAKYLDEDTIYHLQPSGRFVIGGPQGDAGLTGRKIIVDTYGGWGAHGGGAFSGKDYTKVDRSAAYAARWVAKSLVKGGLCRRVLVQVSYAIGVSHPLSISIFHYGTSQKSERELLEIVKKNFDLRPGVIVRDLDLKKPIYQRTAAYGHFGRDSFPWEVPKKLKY
The assay can be described thus: MAT2A biochemical assay (liberated phosphate, PiColorLock Gold). The conditions noted are these: Table 5a; MAT2A biochemical assay; read-out: Enzyme Inhibition. In outline: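 Baculovirus/Sf9-expressed, Ni-purified MAT2A homodimer preincubated with compound 60 min at 25 °C, then reacted 60 min at 25 °C with substrate mix of 500 μM ATP and 400 μM L-methionine, pH 7.0 (mix, not final levels). Phosphate released with SAM measured by PiColorLock Gold against phosphate standard curve.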

[2] abbreviates: Homo sapiens, HCT-116, 96 h, Table 5a.
[3] abbreviates: Homo sapiens, HCT-116, Table 5a.
[4] abbreviates: Table 6, select pairs of compounds.

On to `CCCc1ccc2c(n1)N(c1ccc(OC)cc1)C(=O)N(c1ccc3nn(C)cc3c1)C2` [Example 294, 1-(4-methoxyphenyl)-3-(2-methyl-2H-indazol-5-yl)-7-propyl-3,4-dihydropyrido[2,3-d]pyrimidin-2(1H)-one], for which the IC50 was above 1000 nM in the assay with HCT116 MTAP+/+, below 100 nM in the assay on HCT116 MTAP-/- (setting [2]), below 100 nM in assay [1] (setting [3]) and below 100 nM on MAT2A homodimer.
As to `COC1CC=C(N2C(=O)N(c3ccc4nn(C)cc4c3)Cc3ccc(OCC(F)F)nc32)CC1` (stereo not shown) [Example 178, 7-(2,2-difluoroethoxy)-1-(4-methoxycyclohex-1-en-1-yl)-3-(2-methyl-2H-indazol-5-yl)-3,4-dihydropyrido[2,3-d]pyrimidin-2(1H)-one], the IC50 was 100 to 1000 nM with HCT116 MTAP+/+, below 100 nM with HCT116 MTAP-/- (setting [2]), below 100 nM in assay [1] (setting [3]) and below 100 nM at MAT2A homodimer.
`CCOc1cnc2c(n1)N(c1ccc(Cl)cc1)C(=O)N(c1ccc3nn(C)cc3c1)C2` [Example 413, 1-(4-chlorophenyl)-7-ethoxy-3-(2-methyl-2H-indazol-5-yl)-3,4-dihydropteridin-2(1H)-one]: the IC50 is above 1000 nM in the assay on HCT116 MTAP+/+, 100 to 1000 nM in the assay with HCT116 MTAP-/- (setting [2]), below 100 nM in assay [1] (setting [3]) and below 100 nM on MAT2A homodimer.
Consider `CCOc1cnc2c(c1)N(c1ccc(OC(F)F)cc1)C(=O)N(c1ccc(OC)cc1)C2` [Example 289, 1-(4-(difluoromethoxy)phenyl)-7-ethoxy-3-(4-methoxyphenyl)-3,4-dihydropyrido[3,2-d]pyrimidin-2(1H)-one], for which the IC50 in the assay on HCT116 MTAP+/+ was above 1000 nM; with HCT116 MTAP-/- (setting [2]), above 1000 nM; in assay [1] (setting [3]) it was above 1000 nM; on MAT2A homodimer, 100 to 1000 nM.
For `[2H]C([2H])([2H])Oc1ccc(N2C(=O)N(c3ccc4nn(C)cc4c3)Cc3c(NC)nc(NCC(F)(F)F)nc32)cc1` [Example 432, 1-(4-(methoxy-d3)phenyl)-3-(2-methyl-2H-indazol-5-yl)-5-(methylamino)-7-((2,2,2-trifluoroethyl)amino)-3,4-dihydropyrimido[4,5-d]pyrimidin-2(1H)-one], the IC50 in the assay on HCT116 MTAP+/+ is above 1000 nM; in the assay with HCT116 MTAP-/- (setting [2]), below 100 nM; in assay [1] (setting [3]) it was below 100 nM; on MAT2A homodimer, below 100 nM.
`[2H]C([2H])([2H])Oc1ccc(N2C(=O)N(c3ccc4nn(C)cc4c3)Cc3ccc(OCC)nc32)cc1` [Example 137, 7-ethoxy-1-(4-(methoxy-d3)phenyl)-3-(2-methyl-2H-indazol-5-yl)-3,4-dihydropyrido[2,3-d]pyrimidin-2(1H)-one]: the IC50 is above 1000 nM with HCT116 MTAP+/+, below 100 nM in the assay on HCT116 MTAP-/- (setting [2]), below 100 nM in assay [1] (setting [3]) and below 100 nM on MAT2A homodimer.
Take `O=C1N(c2ccc3ncccc3c2)Cc2cnc(NCC(F)(F)F)nc2N1c1ccc(-c2nc[nH]n2)cc1` [Example 223, 1-(4-(1H-1,2,4-triazol-3-yl)phenyl)-3-(quinolin-6-yl)-7-((2,2,2-trifluoroethyl)amino)-3,4-dihydropyrimido[4,5-d]pyrimidin-2(1H)-one]: the IC50 was above 1000 nM with HCT116 MTAP+/+, 100 to 1000 nM with HCT116 MTAP-/- (setting [2]), below 100 nM in assay [1] (setting [3]) and below 100 nM at MAT2A homodimer.
Turning to `Cn1cc2cc(N3Cc4cnc(NCC(F)(F)F)nc4N(c4ccc(OC(F)F)cc4)C3=O)ccc2n1` [Example 216, 1-(4-(difluoromethoxy)phenyl)-3-(2-methyl-2H-indazol-5-yl)-7-((2,2,2-trifluoroethyl)amino)-3,4-dihydropyrimido[4,5-d]pyrimidin-2(1H)-one], the IC50 in the assay with HCT116 MTAP+/+ is above 1000 nM; with HCT116 MTAP-/- (setting [2]), below 100 nM; with HCT116 MTAP-/- (setting [4]) it was below 100 nM; in assay [1] (setting [3]), below 100 nM; in assay [1] (setting [4]) it was below 100 nM; on MAT2A homodimer, below 100 nM.
Consider `CCOc1cnc2c(n1)N(c1ccc(OC(F)F)cc1)C(=O)N(c1ccc(OC)cc1)C2` [Example 186, 1-(4-(difluoromethoxy)phenyl)-7-ethoxy-3-(4-methoxyphenyl)-3,4-dihydropteridin-2(1H)-one], for which the IC50 in the assay on HCT116 MTAP+/+ was 100 to 1000 nM; in the assay on HCT116 MTAP-/- (setting [2]), below 100 nM; in assay [1] (setting [3]) it was 100 to 1000 nM; on MAT2A homodimer it was below 100 nM.
As to `Cn1cc2cc(N3Cc4ccc(OCC(F)F)nc4N(c4ccc5c(ccn5C)c4)C3=O)ccc2n1` [Example 172, 7-(2,2-difluoroethoxy)-1-(1-methyl-1H-indol-5-yl)-3-(2-methyl-2H-indazol-5-yl)-3,4-dihydropyrido[2,3-d]pyrimidin-2(1H)-one], the IC50 in the assay with HCT116 MTAP+/+ is 100 to 1000 nM; in the assay on HCT116 MTAP-/- (setting [2]), below 100 nM; in assay [1] (setting [3]) it was below 100 nM; at MAT2A homodimer it was below 100 nM.
Turning to `Cn1cc2cc(N3Cc4cnc(NCC(F)(F)F)nc4N(c4ccc(Br)cc4)C3=O)ccc2n1` [Example 425, 1-(4-bromophenyl)-3-(2-methyl-2H-indazol-5-yl)-7-((2,2,2-trifluoroethyl)amino)-3,4-dihydropyrimido[4,5-d]pyrimidin-2(1H)-one], the IC50 is above 1000 nM with HCT116 MTAP+/+, below 100 nM in the assay on HCT116 MTAP-/- (setting [2]), below 100 nM in assay [1] (setting [3]) and below 100 nM on MAT2A homodimer.
As for `[2H]C([2H])([2H])Oc1ccc(N2C(=O)N(c3ccc4nn(C)cc4c3)Cc3ccc(OCCF)nc32)cc1` [Example 163, 7-(2-fluoroethoxy)-1-(4-methoxy-d3-phenyl)-3-(2-methyl-2H-indazol-5-yl)-3,4-dihydropyrido[2,3-d]pyrimidin-2(1H)-one], the IC50 is above 1000 nM in the assay on HCT116 MTAP+/+, 100 to 1000 nM with HCT116 MTAP-/- (setting [2]), 100 to 1000 nM in assay [1] (setting [3]) and below 100 nM at MAT2A homodimer.
Take `CCOc1ccc2c(n1)N(c1ccc(OC)cc1)C(=O)N(c1ccc3c(c1)N(C)CCO3)C2` [Example 122, 7-ethoxy-1-(4-methoxyphenyl)-3-(4-methyl-3,4-dihydro-2H-benzo[b][1,4]oxazin-6-yl)-3,4-dihydropyrido[2,3-d]pyrimidin-2(1H)-one]: the IC50 with HCT116 MTAP+/+ is above 1000 nM; in the assay on HCT116 MTAP-/- (setting [2]) it was 100 to 1000 nM; in assay [1] (setting [3]), 100 to 1000 nM; at MAT2A homodimer it was below 100 nM.
With `Cn1cc2cc(N3Cc4cc(F)c(OCC(F)F)cc4N(c4ccc(OC(F)F)cc4)C3=O)ccc2n1` [Example 285, 7-(2,2-difluoroethoxy)-1-(4-(difluoromethoxy)phenyl)-6-fluoro-3-(2-methyl-2H-indazol-5-yl)-3,4-dihydroquinazolin-2(1H)-one], the IC50 was above 1000 nM in the assay with HCT116 MTAP+/+, 100 to 1000 nM in the assay on HCT116 MTAP-/- (setting [2]), 100 to 1000 nM in assay [1] (setting [3]) and below 100 nM on MAT2A homodimer.
Take `CCOc1ccc2c(n1)N(c1ccc(C3CC3)nc1)C(=O)N(c1ccc3nn(C)cc3c1)C2` [Example 152, 1-(6-cyclopropylpyridin-3-yl)-7-ethoxy-3-(2-methyl-2H-indazol-5-yl)-3,4-dihydropyrido[2,3-d]pyrimidin-2(1H)-one]: the IC50 is above 1000 nM in the assay on HCT116 MTAP+/+, 100 to 1000 nM with HCT116 MTAP-/- (setting [2]), below 100 nM in assay [1] (setting [3]) and below 100 nM at MAT2A homodimer.
Turning to `Cn1cc2cc(N3Cc4cnc(NCC(F)(F)F)cc4N(c4ccc(OC(F)F)cc4)C3=O)ccc2n1` [Example 268], the IC50 is above 1000 nM with HCT116 MTAP+/+, above 1000 nM with HCT116 MTAP-/- (setting [2]), 100 to 1000 nM in assay [1] (setting [3]) and below 100 nM on MAT2A homodimer.
`COc1ccc(N2C(=O)N(c3ccc4nn(C)cc4c3)Cc3c(OC)nc(NCC(F)(F)F)nc32)cc1` [Example 246, 5-methoxy-1-(4-methoxyphenyl)-3-(2-methyl-2H-indazol-5-yl)-7-((2,2,2-trifluoroethyl)amino)-3,4-dihydropyrimido[4,5-d]pyrimidin-2(1H)-one]: the IC50 is above 1000 nM in the assay on HCT116 MTAP+/+, 100 to 1000 nM in the assay on HCT116 MTAP-/- (setting [2]), 100 to 1000 nM in assay [1] (setting [3]) and below 100 nM at MAT2A homodimer.
Take `CCOc1ccc2c(n1)N(c1ccc(OC)nc1)C(=O)N(c1ccc3nn(C)cc3c1)C2` [Example 142, 7-ethoxy-1-(6-methoxypyridin-3-yl)-3-(2-methyl-2H-indazol-5-yl)-3,4-dihydropyrido[2,3-d]pyrimidin-2(1H)-one]: the IC50 with HCT116 MTAP+/+ was above 1000 nM; in the assay with HCT116 MTAP-/- (setting [2]) it was 100 to 1000 nM; in assay [1] (setting [3]), below 100 nM; at MAT2A homodimer, below 100 nM.
As for `COc1ccc(N2Cc3cnc(NCC(F)(F)F)nc3N(c3ccc(OC(F)F)cc3)C2=O)cc1` [Example 235, 1-(4-(Difluoromethoxy)phenyl)-3-(4-methoxyphenyl)-7-(2,2,2-trifluoroethylamino)-3,4-dihydropyrimido[4,5-d]pyrimidin-2(1H)-one], the IC50 is above 1000 nM with HCT116 MTAP+/+, 100 to 1000 nM in the assay with HCT116 MTAP-/- (setting [2]), 100 to 1000 nM in assay [1] (setting [3]) and below 100 nM at MAT2A homodimer.
Consider `[2H]C([2H])([2H])Oc1ccc(N2C(=O)N(c3ccc4nc(C)n(C)c4c3)Cc3ccc(OC(C)C)nc32)cc1` [Example 434, 3-(1,2-dimethyl-1H-benzo[d]imidazol-6-yl)-7-isopropoxy-1-(4-(methoxy-d3)phenyl)-3,4-dihydropyrido[2,3-d]pyrimidin-2(1H)-one], for which the IC50 in the assay on HCT116 MTAP+/+ is 100 to 1000 nM; in the assay on HCT116 MTAP-/- (setting [2]), below 100 nM; in assay [1] (setting [3]) it was below 100 nM; at MAT2A homodimer it was below 100 nM.

These data come from US20220098203A1 (priority 2018, published 2022).
